What is called IC50 is the concentration that gives 50% inhibition. Lower therefore signals greater potency. The EC50 is the concentration at which the effect is half-maximal. A high value points to lower potency in that assay.

A short description of data set [1]: Acute toxicity study in Sprague Dawley rats. It is filed as in vivo, rat. The note with it: SD rats, subcutaneous. Here is the method: The comparative in vivo safety of a representative linker-VbP pro-drug administered subcutaneously at a dose equivalent to 10-fold the maximum tolerated dose (MTD) of VbP was established in Sprague Dawley (SD) rats, i.e., 10 times the dose of VbP that […] of the SD rats.
Prior to administration, MAL-activated 6323 (PEGs-linker-VbP pro-drug) was conjugated to L-cysteine in order to inactivate the MAL moiety. L-cysteine (5 mg; Sigma) was dissolved in 1 mL of MAL-activated 6323 (4.8 mM in 50 mM MES, 150 mM NaCl, pH 6) to achieve an approximate stoichiometry of 10:1 L-cysteine:6323. The resulting solution was incubated at room temperature for 2-3 hours, after which time the reaction was confirmed to have reached completion by LC-MS analysis. The resulting Cys-modified 6323 was purified by preparative RP-HPLC using a Supelco Discovery C18 column with a 2:98 acetonitrile:water (0.1% TFA) gradient over 10 minutes, and was subsequently lyophilized.
Six (6) male SD rats (Charles River) were injected subcutaneously with 1.47 mg/kg Cys-modified 6323 (equivalent to 0.25 mg VbP/kg) in sterile PBS. […] In this study, the MTD for VbP was considered to be 0.025 mg VbP/kg. At 24 hours, 5 of the 6 animals administered Cys-modified 6323 at a dose equivalent to 10-times the VbP MTD survived, indicating a safety margin for the VbP pro-drug relative VbP.

The subject of another data set is J774A.1 cells. Kind of data set: Pyroptosis (LDH release) in J774 mouse macrophage cell line. It is filed as cell-based. The note with it: 1 μM, 24 hours. Here is the method:
Affimer-linker-VbP pro-drugs are designed to be cleaved by FAPα to release VbP.
J774A.1 cells (mouse monocyte macrophages; ATCC) were grown in DMEM-10%-FBS in 75 cm^2 tissue culture flasks, harvested by scraping in PBS, resuspended in DMEM-1%-FBS, plated in 96-well plates (VWR) at a density of 5×10^3 cells per well, and placed in a 5% C02 incubator at 37° C. After incubation for 24 hours, serial 10-fold dilutions of VbP, unconjugated AVA04-182 Fc, linker-VbP pro-drugs (6325, 6326 and 6328), and Affimer-linker-VbP pro-drugs (AVA04-182 Fc-6325, −6326 and −6328) were added to wells with and without addition of rhFAPα (R&D Systems) at a final concentration of 25 nM. Each reaction mixture was tested in triplicate and incubated for a further 24 hours at 37° C. Lactate dehydrogenase (LDH; a marker of pyroptosis) released into culture supernatants, was measured using the CytoTox 96 Non-Radioactive Cytotoxicity Assay (Promega) according to the manufacturer's instructions. LDH concentrations were determined by absorbance (A490) measurements in a SpectraMax® M2^e microplate reader (Molecular Devices). Percent LDH release was calculated by subtracting the background release in wells containing DMEM-1%-FBS without cells and expressing the resulting values as percentages of the LDH released by the CytoTox 96 lysis reagent.
Background: LDH leaks from cells whose membrane has failed.

In a further data set the test system is AML cell lines. The data set can be described thus: Pyroptosis in AML cell lines in vitro. It is filed as cell-based.
The test system of data set [2] is humanized PD-L1 MC38 tumour cell line. The data set can be described thus: Humanised PD-L1 MC38 syngeneic model of colorectal cancer. The note with it: VbP 0.02 mg/mouse per os added to AVA04-251 Fc, compared to the monotherapy. It counts as in vivo. The procedure: Mice (n=8/group, C57BL/6) were inoculated subcutaneously in the right flank region with a humanized PD-L1 MC38 tumour cell line (in which the mouse PD-L1 extracellular domain was replaced by the equivalent human domain; CrownBio Inc). AVA04-251 Fc and associated control (SQTgly Fc) were injected via the IP route once tumours were >80 mm^3. Treatments were administered twice a week for 3 weeks at a dose of 10 mg/kg (AVA04-251 Fc and its control, SQTgly Fc). VbP (Tufts University) was administered 5 times a week (with 2 days off) at 0.02 mg/mouse per os. Overall, tumour growth inhibition was shown for both treatments (FIG. 17).
Seventy (70) days after the inoculation of the tumour, three (3) mice from the group treated with AVA04-251 Fc and VbP were inoculated a second time with the huMC38 cell line (a control group was inoculated at the same time) to assess if the immune system developed a memory response, preventing subsequent tumor growth.

Another data set deals with MV4-11 AML cells. The data set can be described thus: MV4-11 AML model in NOD-SCID Il2rg-/- mice. It counts as in vivo, mouse. The following applies: intraperitoneal once a day, 5 days on, 2 days off. The source says: One million MV4-11 cells injected into the tail vein of 10-week-old female NOD-SCID Il2rg−/−mice.
For data set [3], the target named is mouse PD-L1 Fc (R&D Systems) (mouse) (UniProt Q9EP73). Kind of data set: PD-1/PD-L1 competitive ELISA: antibody preincubated with mouse PD-L1 Fc, then loaded on plate-coated mouse PD-1 Fc; % inhibition. (In general: In an ELISA, binding on a coated surface is turned into a signal by an enzyme label.)
Chain of mouse PD-L1 Fc (R&D Systems) (mouse) (Q9EP73 19-238): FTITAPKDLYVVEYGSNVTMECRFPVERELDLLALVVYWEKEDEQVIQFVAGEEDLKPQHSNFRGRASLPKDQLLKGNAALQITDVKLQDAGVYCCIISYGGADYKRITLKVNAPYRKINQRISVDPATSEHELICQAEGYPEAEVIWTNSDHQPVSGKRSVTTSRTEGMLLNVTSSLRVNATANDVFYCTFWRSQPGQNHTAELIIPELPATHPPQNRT
In data set [4] the test system is T cell response (BMDC co-cultured with allogenic CD4+ T cells). Kind of data set: Mouse mixed lymphocyte reaction (MLR) assay. It is filed as cell-based. The note with it: ELISA of supernatant after 3 days of culture, in comparison to isotype control or SQTGly Fc. Here is the method: A mouse mixed lymphocyte reaction (MLR) assay was performed to assess the ability of AVA04-182 Fc to modulate the T cell response. In this MLR assay, BMDC (bone marrow dendritic cells) were generated from the bone marrow of one (1) C57BL/6 mouse, cultured for seven (7) days in the presence of GM-CSF. Cells were then co-cultured with allogenic CD4+ T cells isolated from the spleen of a Balb/c mouse using negative selection. The MLR assay was performed in the presence or absence of the test products (AVA04-182 Fc, SQTgly Fc [SEQ ID NO: 120; Affimer Fc fusion without PD-L1 targeting], Avelumab and its isotype control, HuIgG1) and controls (anti-mouse PD-L1 clone 10F9.G2 and its isotype control, rat IgG2b). Test products were evaluated at three concentrations (700, 70 and 7 nM) and the controls at one concentration (70 nM). After 3 days of culture, cell culture supernatant was harvested and the secretion of interferon γ (IFNγ) and interleukin-2 (IL-2) was evaluated using ELISA. The anti-mouse PD-L1 and Avelumab induced an increase in IL-2 (data not shown) and IFNγ secretion, in comparison to their isotype controls (FIG. 4). Similarly, AVA04-182 Fc treatment led to an increase in IL-2 (data not shown) and IFNγ secretion at all concentrations tested, in comparison to SQTGly Fc (FIG. 4).

The target of data set [5] is T1, human PD-L1 Fc (R&D Systems) chimeric protein (human, UniProt Q9NZQ7 19-239).
T1 construct: Bought reagent; also called human PD-L1 Fe; not shown: Fc part of the bought R&D Systems chimera
T1 sequence (Q9NZQ7 19-239, change not shown): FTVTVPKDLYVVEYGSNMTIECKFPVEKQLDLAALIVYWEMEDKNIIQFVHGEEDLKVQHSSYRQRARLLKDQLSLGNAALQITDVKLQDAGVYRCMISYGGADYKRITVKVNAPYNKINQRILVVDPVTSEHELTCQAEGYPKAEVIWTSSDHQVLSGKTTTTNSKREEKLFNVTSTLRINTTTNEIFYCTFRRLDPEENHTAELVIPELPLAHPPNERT
The data set can be described thus: binding ELISA on plate-coated human PD-L1 Fc, detection with biotinylated anti-cystatin A and streptavidin-HRP; the table gives no unit, nM is the x axis of the curve.

In data set [1], `CC(C)[C@H](N)C(=O)N1CCC[C@H]1B(O)O` [VbP, Val-boroPro] registered an MTD of 0.025 mg VbP/kg. In addition, in the data set on J774A.1 cells (25 nM rhFAPα), the “LDH release in the presence of rhFAPα” value is on record as “significant LDH release”. Moreover, the “LDH release in the absence of rhFAPα” value in the data set with J774A.1 cells (no rhFAPα) was “significant LDH release”. Moreover, the Induction of pyroptosis entry in the data set with AML cell lines was “induces pyroptosis”. Further, in data set [2], the “Escape of tumour growth at Day 13” value is recorded as “none of the mice showed escape of tumour growth”. For the same molecule, the “Efficacy against MV4-11 AML cells in vivo” value with MV4-11 AML cells was “demonstrates efficacy”.

For Anti muPD-L1 (10F9.G2) (antibody), the IC50 in data set [3] amounted to 0.692 nM.

In the case of Avelumab: anti-PD-L1 antibody, in data set [4], the IFNγ secretion entry is recorded as “increase”. Further, in data set [4] (data not shown), the IL-2 secretion entry is “increase”.

B1: AVA04-251 BH cys-800 (designed binder)
chain: MIPRGLSEAKPATPEIQEIVDKVKPQLEEKTNETYGKLEAVQYKTQVLAREGRQDWVLSTNYYIKVRAGDNKYMHLKVFNGPWVPFPHQQLADRVLTGYQVDKNKDDELTGFAEAAAKEAAAKEAAAKEAAAKEAAAKEAAAKMIPRGLSEAKPATPEIQEIVDKVKPQLEEKTNETYGKLEAVQYKTQVLAREGRQDWVLSTNYYIKVRAGDNKYMHLKVFNGPWVPFPHQQLADRVLTGYQVDKNKDDELTGFLQAAAHHHHHHC
modifications: IRDye 800CW conjugated with maleimide chemistry (to the single Cys residue)
notes: Dye conjugate of m3; also called conjugated Affimer
In turn, B1 came in with an EC50 in data set [5] of 0.0904 nM.

B2: AVA04-251 BH cys (designed binder)
chain: B1 chain
notes: Produced in E. coli BL21; also called parental molecule
In turn, B2 showed an EC50 in data set [5] of 0.0355 nM. This EC50 lies about 2.5-fold lower than the previous one.
